Reference: US12589161B2, “PEGylated synthetic KL4 peptide, compositions and methods thereof” (THE UNIVERSITY OF HONG KONG, priority 2019, dated 2026)
Like-named read-outs stand apart in the source and are kept apart here. Non-standard residues stand in square brackets, D forms with d. Residues, ends and D or L forms follow the SMILES beside them. PEG12 = NCCOCCOCCOCCOCCOCCOCCOCCOCCOCCOCCOCCOCCC(=O)O; PEG6 = NCCOCCOCCOCCOCCOCCOCCC(=O)O

How the values were obtained:
A549 cells [1] = assay: Cellular uptake study of mRNA (flow cytometry and confocal microscopy); format: cell-based, human; conditions: 10:1 ratio (w/w), cyanine-5 labelled mRNA, 4 h post-transfection, flow cytometry
Experimental: The cellular uptake of the mRNA was studied by flow cytometry and confocal microscopy. For the flow cytometry study, A549 cells were seeded in 24-well plates at a density of 0.5×10^5 cells per well one day before the experiment. The cells were transfected with naked mRNA, KL4/mRNA and PEG12KL4/mRNA complexes at 10:1 ratio (w/w) in OptiMEM I reduced serum medium containing 1 μg of cyanine-5 labelled EGFP mRNA per well. After 4 h of incubation, the cells were washed and trypsinized. Cells from three separate wells of the same treatment were combined and suspended in culture medium. The extracellular florescent signal was quenched with 0.04% (w/v) trypan blue solution. After 2 min, the cells were washed, resuspended in 300 μL of PBS and sieved with a sterile 40 μm cell strainer (BD Biosciences, CA, USA). The fluorescence intensity was analyzed by flow cytometry (BD FACSCantoII Analyzer, BD Biosciences, CA, USA). At least 1×10^4 single cells were analyzed for each sample. For the confocal study, A549 cells were seeded in a 35 mm Mattek glass bottom culture dish (Mattek Corp. Ashland, MA, USA) at a density of 1×10^5 cells per well one day before imaging. Naked mRNA, KL4/mRNA and PEG12KL4/mRNA complexes at 10:1 ratio (w/w) were prepared in Opti-MEM I reduced serum medium with 2 μg of cyanine-5 labelled mRNA per dish. […]

[2] = Solubility of peptides in water; format: physicochemical
[3] = Circular dichroism, temperature ramping; format: physicochemical; conditions: 6 to 94 °C, 5 mM Tris-HCl buffer, 0.1 mg/mL
Experimental: KL4 and PEG6KL4 peptides were dissolved in 5 mM Tris-HCl buffer at a final concentration of 0.1 mg/mL in 0.1% (v/v) DMSO. PEG12KL4 and PEG24KL4 were dissolved in 5 mM Tris-HCl buffer at a final concentration of 0.1 mg/mL without DMSO. CD spectra were acquired on a Chirascan™ Spectrometer (Applied Photophysics, Leatherhead, UK). For temperature ramping experiment, far-UV CD spectra were obtained with the peptide solution incubated from 6° C. to 94° C. Spectra were recorded from 260 to 190 nm using a 0.5 mm path length and were processed using Chirascan software where a spectrum of the peptide free solution was subtracted and Savitzky-Gorlay smoothing applied.

A549 cells [4] = assay: GAPDH siRNA transfection on A549 cells (Western blot); format: cell-based, human; conditions: for Comparison within the same peptide prepared at different peptide to siRNA ratios: A549, one-way ANOVA, Tukey, n.s. not significant, * p<0.05, ** p<0.01, *** p<0.001; for inhibition of GAPDH protein: A549, 25 nM siRNA, 10:1 ratio (w/w); for siRNA transfection efficiency among the four peptides at different amounts of siRNA: A549, 10:1 ratio, 6 to 100 nM siRNA
Experimental: A549 cells were seeded in 6-well plates at a density of 1.5×10^5 cells per well one day before transfection. The cells were transfected with peptide/siRNA complexes containing 50 pmol of GAPDH siRNA or negative control siRNA per well (50 nM). The complexes were prepared in OptiMEM I reduced serum medium at 10:1, 15:1 and 20:1 ratios (w/w). Lipofectamine 2000 was used as control. The complexes were added to the cells and incubated for 4 h at 5% CO2, 37° C. before being washed with PBS. The transfection medium was removed and replaced with serum supplemented cell culture medium. At 72 h post-transfection, the cells were washed and lysed with cell lysis buffer. Western blotting assay was performed to analyze the level of GAPDH protein. The GAPDH expression was analyzed by densitometry of Western Blots using Image J software. The remaining GAPDH expression was the density of the GAPDH band of positive control (normalized with beta-actin of the corresponding sample) divided by the GAPDH band of negative control (normalized with the beta actin band of the corresponding sample).
(§1) A549 cells, BEAS-2B and Calu-3 cells were seeded in six-well plates at a density of 1.6×10^5 cells per well, 2×10^5 cells per well and 3×10^5 cells per well, respectively, one to two days before transfection. The cells were transfected with peptide/siRNA complexes at 5:1 to 20:1 ratio (w/w) containing GAPDH siRNA or negative control siRNA (6 to 100 nM) in OptiMEM I reduced serum medium. Lipofectamine 2000 was used for comparison. After 5 h of incubation, the cells were washed and replaced with serum supplemented cell culture medium. At 72 h post-transfection, the cells were washed and lysed with cell lysis buffer. Western blotting assay was performed to analyze the level of GAPDH protein as previously described. The GAPDH expression was analyzed by densitometry of Western blots using ImageJ software (Version 1.52). The GAPDH expression was normalized with the expression of […]-actin of the corresponding sample. The remaining GAPDH expression was the normalized GAPDH expression of positive control divided by the normalized GAPDH expression of negative control.

A549 cells [5] = assay: Cellular uptake of siRNA by flow cytometry on A549 cells; format: cell-based, human; conditions: A549, 10:1 ratio, fluorescently labelled siRNA, 4 h
Experimental: Flow cytometry was used to investigate the cellular uptake of peptide/siRNA complexes. A549 cells and Calu-3 cells were seeded in six-well plates at a density of 2.5×10^5 cells and 4×10^5 cells per well, respectively, one day before the experiment. The cells were transfected with peptide/siRNA complexes at 10:1 ratio (w/w) containing fluorescently labelled siRNA (150 nM) in Opti-MEM I reduced serum medium. The transfection medium was removed after 4 h of incubation, and the cells were washed with PBS once. The cells were trypsinized by 0.25% (w/v) trypsin-EDTA and suspended in culture medium. The extracellular fluorescence signal was quenched with 0.04% (w/v) trypan blue solution. After 2 min of incubation, the cells were washed with PBS thrice. The cells were resuspended in 500 μL of PBS and sieved with a sterile 40 μm cell strainer (BD Biosciences, CA, USA). The fluorescence intensity was analyzed by flow cytometry with PE/PI laser (585/42 nm) (BD FACSCantoII Analyzer, BD Biosciences, CA, USA). At least 10,000 single cells were analyzed for each sample.

[6] = Charge ratio of peptide to siRNA at 10:1 weight ratio
From the text: This is partly because the uncharged PEG chains reduced the effective charge ratio between cationic KL4 and siRNA [77]. The charge ratios of KL4, PEG6KL4, PEG12KL4 and PEG24KL4 to siRNA at 10:1 weight ratio are 6.1 to 1, 5.5 to 1, 4.9 to 1 and 4.2 to 1, respectively. […] The molecular weight of the PEG used in this study, which is below 1,200 Da, is relatively low compared with others where PEG of 2,000 to 5,000 Da was often used. Therefore, PEGylated KL4 peptide/siRNA complexes remained to be positively charged, which is suitable for cellular entry. […] In addition, PEG also provides steric hindrance between the interaction of KL4 and siRNA that weakens the binding, promoting the release of siRNA from the complexes after the addition of heparin.

Calu-3 cells = assay: GAPDH siRNA transfection on Calu-3 cells (Western blot); format: cell-based, human; conditions: one-way ANOVA, Tukey, n.s. not significant, * p<0.05, ** p<0.01, *** p<0.001
Experimental: as §1

BEAS-2B cells [7] = assay: GAPDH siRNA transfection on BEAS-2B cells (Western blot); format: cell-based, human; conditions: for siRNA transfection efficiency: 50 nM siRNA, 72 h; for Comparison within the same peptide prepared at different peptide to siRNA ratios: one-way ANOVA, Tukey, n.s. not significant, * p<0.05, ** p<0.01, *** p<0.001
Experimental: as §1

A549 cells [8] = assay: Luciferase mRNA transfection in vitro on A549 cells; format: cell-based, human; conditions: 24 h post-transfection
Experimental: (§2) A549 cells and BEAS-2B cells were seeded in 24-well plates at a density of 0.5×10^5 and 1×10^5 cells per well, respectively, for overnight. The KL4/mRNA and PEG12KL4/mRNA complexes formed at 5:1 to 30:1 ratio (w/w) in OptiMEM I reduced serum medium were added to the cells at 0.5 or 1 μg mRNA per well. Naked mRNA and lipoplexes (Lipofectamine 2000/mRNA complexes) were used as controls. After 4 h of incubation, the transfection medium was replaced with serum supplemented cell culture medium. At 24 h post-transfection, the cells were washed and lysed with reporter cell lysis buffer. The luciferase expression was detected using the luciferase assay system according to the manufacturer's protocol. The luminescence was measured with luminometer (SpectraMax L Microplate Reader, Molecular devices, CA, USA) and the protein concentrations of the cell lysates were quantified by Bradford protein assay. The results were expressed as relative light unit (RLU) per mg of total protein. To study the transfection efficiency of PEG12KL4/mRNA in SD and SFD powder formulations, the powders were reconstituted before adding to the cells. The luciferase expression was examined at 24 h post-transfection as described above.

BEAS-2B cells [9] = assay: Luciferase mRNA transfection in vitro on BEAS-2B cells; format: cell-based, human; conditions: 24 h post-transfection
Experimental: as §2

solubility ([2]; water) | charge ratio of peptide to siRNA [6] | solubility [2] | SMILES | percentage of cells with mRNA uptake (A549 cells [1]) | secondary structure at different temperatures (far-UV CD) [3] | Comparison within the same peptide prepared at different peptide to siRNA ratios (A549 cells [4]) | percentage of cells with siRNA uptake (A549 cells [5]) | inhibition of GAPDH protein (A549 cells [4]; 72 h) | siRNA transfection efficiency among the four peptides at different amounts of siRNA (A549 cells [4]; 72 h) | Comparison within the same peptide prepared at different peptide to siRNA ratios (Calu-3 cells) | siRNA transfection efficiency (BEAS-2B cells [7]) | Comparison within the same peptide prepared at different peptide to siRNA ratios (BEAS-2B cells [7]) | mRNA transfection efficiency compared with Lipofectamine 2000 (A549 cells [8]) | mRNA transfection efficiency compared with Lipofectamine 2000 (BEAS-2B cells [9]) | siRNA transfection compared with KL4 (A549 cells [4]; A549, 10:1, 15:1 and 20:1 ratios, 50 pmol siRNA, 72 h, n=1 (FIG. 13))
< 1000 µg/mL | 6.1 to 1 |  | CC(C)C[C@H](NC(=O)[C@H](CC(C)C)NC(=O)[C@H](CC(C)C)NC(=O)[C@H](CC(C)C)NC(=O)[C@H](CCCCN)NC(=O)[C@H](CC(C)C)NC(=O)[C@H](CC(C)C)NC(=O)[C@H](CC(C)C)NC(=O)[C@H](CC(C)C)NC(=O)[C@H](CCCCN)NC(=O)[C@H](CC(C)C)NC(=O)[C@H](CC(C)C)NC(=O)[C@H](CC(C)C)NC(=O)[C@H](CC(C)C)NC(=O)[C@H](CCCCN)NC(=O)[C@H](CC(C)C)NC(=O)[C@H](CC(C)C)NC(=O)[C@H](CC(C)C)NC(=O)[C@H](CC(C)C)NC(=O)[C@@H](N)CCCCN)C(=O)N[C@@H](CCCCN)C(N)=O [KL4, reference compound] (H-KLLLLKLLLLKLLLLKLLLLK-NH2; N-terminus assumed) | 15% | the alpha-helical structure gradually turned to a beta-sheet conformation | n.s. | less than 20% |  |  |  |  |  |  |  | 
 | 5.5 to 1 | < 1000 µg/mL | CC(C)C[C@H](NC(=O)[C@H](CC(C)C)NC(=O)[C@H](CC(C)C)NC(=O)[C@H](CC(C)C)NC(=O)[C@H](CCCCN)NC(=O)[C@H](CC(C)C)NC(=O)[C@H](CC(C)C)NC(=O)[C@H](CC(C)C)NC(=O)[C@H](CC(C)C)NC(=O)[C@H](CCCCN)NC(=O)[C@H](CC(C)C)NC(=O)[C@H](CC(C)C)NC(=O)[C@H](CC(C)C)NC(=O)[C@H](CC(C)C)NC(=O)[C@H](CCCCN)NC(=O)[C@H](CC(C)C)NC(=O)[C@H](CC(C)C)NC(=O)[C@H](CC(C)C)NC(=O)[C@H](CC(C)C)NC(=O)[C@H](CCCCN)NC(=O)CCOCCOCCOCCOCCOCCOCCN)C(=O)N[C@@H](CCCCN)C(N)=O [PEG6KL4] (H-[PEG6]KLLLLKLLLLKLLLLKLLLLK-NH2; N-terminus assumed) |  | adopted an alpha-helical structure at all tested temperatures | n.s. |  | 80% | most effective in transfecting siRNA | n.s. | significantly higher transfection efficiency compared with lipofectamine 2000 | n.s. |  |  | 
 | 4.9 to 1 | > 2000 µg/mL | CC(C)C[C@H](NC(=O)[C@H](CC(C)C)NC(=O)[C@H](CC(C)C)NC(=O)[C@H](CC(C)C)NC(=O)[C@H](CCCCN)NC(=O)[C@H](CC(C)C)NC(=O)[C@H](CC(C)C)NC(=O)[C@H](CC(C)C)NC(=O)[C@H](CC(C)C)NC(=O)[C@H](CCCCN)NC(=O)[C@H](CC(C)C)NC(=O)[C@H](CC(C)C)NC(=O)[C@H](CC(C)C)NC(=O)[C@H](CC(C)C)NC(=O)[C@H](CCCCN)NC(=O)[C@H](CC(C)C)NC(=O)[C@H](CC(C)C)NC(=O)[C@H](CC(C)C)NC(=O)[C@H](CC(C)C)NC(=O)[C@H](CCCCN)NC(=O)CCOCCOCCOCCOCCOCCOCCOCCOCCOCCOCCOCCOCCN)C(=O)N[C@@H](CCCCN)C(N)=O [PEG12KL4] (H-[PEG12]KLLLLKLLLLKLLLLKLLLLK-NH2; N-terminus assumed) | Over 60% | more sensitive in response to temperature compared with the other peptides | n.s. |  | 80% | most effective in transfecting siRNA |  | significantly higher transfection efficiency compared with lipofectamine 2000 | n.s. | comparable to that of Lipofectamine 2000 | comparable to that of Lipofectamine 2000 | superior to KL4 in mediating siRNA transfection at all tested ratios
